# Experimental data from patent US4618612A (Medosan Industrie Biochimiche Riunite S.p.A., priority 1983, dated 1986).
# Where two headings read alike, the source gives them in different places.
# Experiments:
# [1] = Solubility; type: physicochemical; settings: common organic solvents
# [2] = test system: gastric mucosa; experiment: Gastric tolerance (ulcerogenic activity); type: in vivo, male Wistar rats; settings: 4 days; for Mean Severity: scale 0-5; for Gastric Damage index: vehicle 8
# Method: This was studied by conducting tests of ulcerogenic activity in male Wistar rats, weighing 180 g on the average, in groups of 10 animals each. Three doses of each substance were given, and one group of animals was treated with vehicle only in a volume of 10 ml/kg bodyweight. Each dose was given orally for four consecutive days; on the fifth day, the rats were killed and autopsied. The ulcerogenic effect was assessed according to the following scale:
# (1) each hemorrhage point ≥1 mm was evaluated as 1 lesion
# (2) hemorrhage points smaller than 1 mm were counted as follows:
# (b) from 1 to 19:2 lesions
# (c) from 1 to 29:3 lesions
# (2) gastric mucosa irritation: 1
# (3) hemorrahge points <1 mm: 2
# (4) hemorrhage points between 1 and 3 mm: 3
# (5) hemorrhage points >3 mm: 4
# This scale was used to calculate the following gastric damage index: [formula]
# [3] = in vivo; settings: mouse, mice
# [4] = test system: carragenin-induced edema; experiment: Carragenin-induced edema test (Winter); type: in vivo, rat
# Method: This effect was measured with an experimental model reproducing acute inflammation in rats: the carragenin-induced edema test according to C.
# [5] = test system: human platelet aggregation (PRP); experiment: Human platelet aggregation in vitro induced by ADP, adrenalin, collagen or arachidonate; type: cell-based; settings: Homo sapiens
# Method: Blood samples (20 ml) were obtained by venal puncture of the antecubital fossa using plastic syringes containing trisodium citrate as anticoagulant (final concentration 0.19% w/v). Platelet rich plasma (PRP) was harvested after slow centrifugation at 170 g for 12 min. and 0.2 ml aliquots were dispensed into plastic cuvettes and stored at room temperature throughout the experiment.
# Aliquots of 0.2 ml PRP from each sample were treated with ADP, adrenalin, collagen or arachidonate, until the threshold concentrations of these aggregating agents had been reached. The threshold concentration is defined as the minimum whcih will produce irreversible aggregation. Once established, the threshold concentration was used to challenge test samples of each of the 2 test compounds or vehicle (DMSO) which had been incubated for 1 min. at 37 C. in the holding cell of the agregometer, prior to addition of the aggregating agent.
# This was reported as the final concentration in the PRP after addition of 2.5-10 ul of test substance.
# [6] = test system: rat platelet-rich plasma (ADP-induced platelet aggregation); experiment: Anti-platelet aggregation activity in vitro (Born's method), rat platelet-rich plasma, ADP-induced; type: cell-based
# [7] = in vivo; settings: rat, rats
smiles,measurement,setting,value
"Cc1ccc(C(=O)c2ccc(CC(=O)OCCn3cnc4c3c(=O)n(C)c(=O)n4C)n2C)cc1 [(A), 1-Methyl-5-p-methylbenzoylpyrrol-2-acetate of 7-(2-oxyethyl)theophylline]",Solubility,[1],Soluble in common organic solvents
same,% incidence 10,[2]; 50 mg/kg oral,6 %/10
same,"Gastric Damage index, second figure (after +; difference from vehicle)",[2]; 50 mg/kg oral,1
same,Mean No. lesions,[2]; 50 mg/kg oral,1
same,Mean Severity,[2]; 50 mg/kg oral,2
same,Gastric Damage index,[2]; 50 mg/kg oral,9
same,% incidence 10,[2]; 100 mg/kg oral,8 %/10
same,"Gastric Damage index, second figure (after +; difference from vehicle)",[2]; 100 mg/kg oral,4
same,Mean No. lesions,[2]; 100 mg/kg oral,2
same,Mean Severity,[2]; 100 mg/kg oral,2
same,Gastric Damage index,[2]; 100 mg/kg oral,12
same,% incidence 10,[2]; 200 mg/kg oral,8 %/10
same,"Gastric Damage index, second figure (after +; difference from vehicle)",[2]; 200 mg/kg oral,6
same,Mean No. lesions,[2]; 200 mg/kg oral,3
same,Mean Severity,[2]; 200 mg/kg oral,3
same,Gastric Damage index,[2]; 200 mg/kg oral,14
same,LD50,"[3]; ip, I.P.",950 mg/kg
same,LD50,"[3]; po, OS",1270 mg/kg
same,% Edema Inhibition,"[4]; I.P., 10 mg/kg, 3 h","35,0%"
same,% Edema Inhibition,"[4]; I.P., 10 mg/kg, 6 h","26,0%"
same,% Edema Inhibition,"[4]; I.P., 10 mg/kg, 24 h","0,0%"
same,% Edema Inhibition,"[4]; I.P., 50 mg/kg, 3 h","54,0%"
same,% Edema Inhibition,"[4]; I.P., 50 mg/kg, 6 h","40,0%"
same,% Edema Inhibition,"[4]; I.P., 50 mg/kg, 24 h","0,0%"
same,% Edema Inhibition,"[4]; I.P., 100 mg/kg, 3 h","65,0%"
same,% Edema Inhibition,"[4]; I.P., 100 mg/kg, 6 h","56,1%"
same,% Edema Inhibition,"[4]; I.P., 100 mg/kg, 24 h","0,0%"
same,% Edema Inhibition,"[4]; OS, 10 mg/kg, 3 h","34,6%"
same,% Edema Inhibition,"[4]; OS, 10 mg/kg, 6 h","22,2%"
same,% Edema Inhibition,"[4]; OS, 10 mg/kg, 24 h","0,0%"
same,% Edema Inhibition,"[4]; OS, 50 mg/kg, 3 h","52,0%"
same,% Edema Inhibition,"[4]; OS, 50 mg/kg, 6 h","41,1%"
same,% Edema Inhibition,"[4]; OS, 50 mg/kg, 24 h","0,0%"
same,% Edema Inhibition,"[4]; OS, 100 mg/kg, 3 h","62,0%"
same,% Edema Inhibition,"[4]; OS, 100 mg/kg, 6 h","57,3%"
same,% Edema Inhibition,"[4]; OS, 100 mg/kg, 24 h","10,0%"
same,minimal effective concentration,"[5]; ATH-8, 1 min, ADP, volunteer 3, read-out: Minimum Effective Concentration (Final in PRP)",100 µM
same,minimal effective concentration,"[5]; ATH-8, 1 min, Adrenalin, volunteer 3, read-out: Minimum Effective Concentration (Final in PRP)",10 µM
same,minimal effective concentration,"[5]; ATH-8, 1 min, Arachidonate, volunteer 3, read-out: Minimum Effective Concentration (Final in PRP)",250 µM
same,minimal effective concentration,"[5]; ATH-8, 1 min, Collagen, volunteer 3, read-out: Minimum Effective Concentration (Final in PRP)",700 µM
same,minimal effective concentration,"[5]; Platelet, 1 min, ADP, volunteer 1, read-out: Minimum Effective Concentration (Final in PRP)",10 µM
same,minimal effective concentration,"[5]; Platelet, 1 min, ADP, volunteer 2 (donor gamma), read-out: Minimum Effective Concentration (Final in PRP)",10 µM
same,minimal effective concentration,"[5]; Platelet, 1 min, Adrenalin, range over 3 volunteers, read-out: Minimum Effective Concentration Range",10 µM
same,minimal effective concentration,"[5]; Platelet, 1 min, Adrenalin, volunteer 1, read-out: Minimum Effective Concentration (Final in PRP)",10 µM
same,minimal effective concentration,"[5]; Platelet, 1 min, Adrenalin, volunteer 2 (donor gamma), read-out: Minimum Effective Concentration (Final in PRP)",10 µM
same,minimal effective concentration,"[5]; Platelet, 1 min, Arachidonate, volunteer 1, read-out: Minimum Effective Concentration (Final in PRP)",100 µM
same,minimal effective concentration,"[5]; Platelet, 1 min, Arachidonate, volunteer 2 (donor gamma), read-out: Minimum Effective Concentration (Final in PRP)",10 µM
same,minimal effective concentration,"[5]; Platelet, 1 min, Collagen, volunteer 1, read-out: Minimum Effective Concentration (Final in PRP)",100 µM
same,minimal effective concentration,"[5]; Platelet, 1 min, Collagen, volunteer 2 (donor gamma), read-out: Minimum Effective Concentration (Final in PRP)",550 µM
same,% Inhibition,"[6]; ADP 2 μmol/l, dose 1 V/ml (Table II)",42%
same,% Inhibition,"[6]; ADP 5 μmol/l, dose 1 V/ml (Table II)",30%
same,% Inhibition,"[6]; ADP 7.08 μmol/l, dose 1 /ml (Table I)",25%
same,% Inhibition,"[6]; ADP 7.08 μmol/l, dose 2,5 /ml (Table I)",100%
same,% Inhibition,"[6]; ADP 7.08 μmol/l, dose 5 /ml (Table I)",100%
same,LD50,"[7]; ip, I.P.",800 mg/kg
same,LD50,"[7]; po, OS",1150 mg/kg
